Values after ≈ are worked out from the molar mass of the structure shown. Counter-ions that a name gives are not always drawn.
Columns and labels:
[1] = test system: Alcaligenes viscolactis; assay: antimicrobial activity, broth microdilution (Mueller-Hinton broth); assay type: cell-based; conditions: culture number 21698, read-out: Minimal Inhibitory Concentration (MIC)
Description: (§1) The antimicrobial activity of CL-1957E was evaluated using the broth microdilution method. Serial dilutions of CL-1957E were made in Muellar-Hinton broth for bacteria and in yeast extract-peptone-dextrose broth for the fungi.

[2] = test system: Bacillus cereus; assay: as above; assay type: cell-based; conditions: culture number 04810, read-out: Minimal Inhibitory Concentration (MIC)
Description: as §1

[3] = test system: Bacillus megaterium; assay: as above; assay type: cell-based; conditions: Priestia megaterium; culture number 066; read-out: Minimal Inhibitory Concentration (MIC)
Description: as §1

[4] = test system: Branhamella catarrhalis; assay: as above; assay type: cell-based; conditions: Moraxella catarrhalis; culture number 03596; read-out: Minimal Inhibitory Concentration (MIC)
Description: as §1

[5] = test system: Escherichia coli; assay: as above; assay type: cell-based; conditions: culture number 04863, read-out: Minimal Inhibitory Concentration (MIC)
Description: as §1

[6] = test system: Micrococcus luteus; assay: as above; assay type: cell-based; conditions: culture number 05064, read-out: Minimal Inhibitory Concentration (MIC)
Description: as §1

[7] = test system: Pseudomonas aeruginosa; assay: as above; assay type: cell-based; conditions: culture number 05111, read-out: Minimal Inhibitory Concentration (MIC)
Description: as §1

[8] = test system: Salmonella typhimurium; assay: as above; assay type: cell-based; conditions: Salmonella enterica, culture number TA1535, read-out: Minimal Inhibitory Concentration (MIC)
Description: as §1

[9] = test system: Staphylococcus aureus; assay: as above; assay type: cell-based; conditions: culture number 02482, read-out: Minimal Inhibitory Concentration (MIC)
Description: as §1

[10] = test system: Streptococcus faecalis; assay: as above; assay type: cell-based; conditions: Enterococcus faecalis; culture number 05045; read-out: Minimal Inhibitory Concentration (MIC)
Description: as §1

[11] = test system: Streptococcus pneumoniae; assay: as above; assay type: cell-based; conditions: culture number SV1, read-out: Minimal Inhibitory Concentration (MIC)
Description: as §1

[12] = test system: Streptococcus pyogenes; assay: as above; assay type: cell-based; conditions: culture number C203, read-out: Minimal Inhibitory Concentration (MIC)
Description: as §1

[13] = test system: Mucor parasiticus; assay: antimicrobial activity, broth microdilution (yeast extract-peptone-dextrose broth); assay type: cell-based; conditions: culture number M2652, read-out: Minimal Inhibitory Concentration (MIC)
Description: as §1

[14] = test system: Rhizopus japonicus; assay: as above; assay type: cell-based; conditions: culture number M1557, read-out: Minimal Inhibitory Concentration (MIC)
Description: as §1

[15] = test system: Rhodotorula aurantiaca; assay: as above; assay type: cell-based; conditions: Buckleyzyma aurantiaca; culture number M1508; read-out: Minimal Inhibitory Concentration (MIC)
Description: as §1

[16] = test system: Saccharomyces cerevisiae; assay: as above; assay type: cell-based; conditions: culture number S288, read-out: Minimal Inhibitory Concentration (MIC)
Description: as §1

[17] = test system: Schizosaccharomyces pombe; assay: as above; assay type: cell-based; conditions: culture number M1388, read-out: Minimal Inhibitory Concentration (MIC)
Description: as §1

[18] = test system: Torulopsis albida; assay: as above; assay type: cell-based; conditions: Naganishia albida; culture number M1390; read-out: Minimal Inhibitory Concentration (MIC)
Description: as §1

[19] = test system: P388 leukemia; assay: in vivo activity against P388 leukemia in mice; conditions: Days 1-5, P388 inoculated intraperitoneally Day 0
Description: The in vivo activity of CL-1957E against P388 leukemia in mice was assayed using the protocol established in Cancer Chemotherapy Reports, Vol. 3, Part 3, 1-87 (1972). The results of these tests are presented in Table 7 in terms of %T/C values which are the ratios of mean survival times of treated to control animals, expressed as percentages.

[20] = test system: L1210 mouse leukemia cells; assay: in vitro cytotoxicity against L1210 mouse leukemia cells; assay type: cell-based; conditions: read-out: ID50 (cytotoxicity)
Description: (§2) The cytotoxicity of CL-1957E against L1210 mouse leukemia cells and against human colon adenocarcinoma (HCT 8) cells was measured in vitro. The ID50 values appear in Table 8.

[21] = test system: human colon adenocarcinoma (HCT 8) cells; assay: in vitro cytotoxicity against human colon adenocarcinoma (HCT 8) cells; assay type: cell-based; conditions: read-out: ID50 (cytotoxicity)
Description: as §2

[22] = solubility in water; assay type: physicochemical; conditions: lyophilized triethylammonium salt
Description: A cooled solution of triethylamine (2.45 ml, 0.176 mmol) in 7.55 ml of water is added dropwise with stirring to a solution of 100 mg (0.176 mmol) of CL-1957E in 2.5 ml of methanol. The resulting solution is concentrated to a final volume of about 2 ml on a rotary evaporator and then diluted to 40 ml with water. Two-milliliter aliquots of this solution were added to each of several 6-ml vials.

## CC(/C=C/C1OC(=O)C=CC1C)=C\C(C)C/C=C/C(C)=C/C(CO)C(=O)C(C)C(O)C(C)C/C(C)=C/C(=O)O (stereo not shown) [CL-1957E, 19-(3,6-dihydro-3-methyl-6-oxo-2H-pyran-2-yl)-6-hydroxy-9-(hydroxymethyl)-3,5,7,11,15,17-hexamethyl-8-oxo-2,10,12,16,18-nonadecapentaenoic acid]
[1]
  MIC: ≤ 0.46 µg/mL
[2]
  MIC: ≤ 0.46 µg/mL
[3]
  MIC: ≤ 0.46 µg/mL
[4]
  MIC: ≤ 0.46 µg/mL
[5]
  MIC: > 1000 µg/mL
[6]
  MIC: ≤ 0.46 µg/mL
[7]
  MIC: > 1000 µg/mL
[8]
  MIC: > 1000 µg/mL
[9]
  MIC: ≤ 0.46 µg/mL
[10]
  MIC: ≤ 0.46 µg/mL
[11]
  MIC: ≤ 0.46 µg/mL
[12]
  MIC: ≤ 0.46 µg/mL
[13]
  MIC: > 1000 µg/mL
[14]
  MIC: > 1000 µg/mL
[15]
  MIC: > 1000 µg/mL
[16]
  MIC: > 1000 µg/mL
[17]
  MIC: 12.3 µg/mL (≈ 22.7 µM)
[18]
  MIC: > 1000 µg/mL
[19]; 25 μg/kg/injection
  % T/C (ratio of mean survival times of treated to control animals): 130%
[19]; 50 μg/kg/injection
  % T/C (ratio of mean survival times of treated to control animals): 139%
[19]; 100 μg/kg/injection
  % T/C (ratio of mean survival times of treated to control animals): 153%
[19]; 200 μg/kg/injection
  % T/C (entry in words: toxicity): Toxic
[20]
  IC50: 0.0034 µg/mL (≈ 0.00626 µM)
[21]
  IC50: 0.001 µg/mL (≈ 0.00184 µM)

## CC(/C=C/C1OC(=O)C=CC1C)=C\C(C)C/C=C/C(C)=C/C(CO)C(=O)C(C)C(O)C(C)C/C(C)=C/C(=O)O (stereo not shown) [CL-1957E triethylammonium salt]
[22]
  solubility in water: soluble in water
